Laboratory results reported in patent US9247759B2, “Identification of human T2R receptors that respond to bitter compounds that elicit the bitter taste in compositions, and the use thereof in assays to identify compounds that inhibit (block) bitter taste in compositions and use thereof” (SENOMYX, INC., priority 2007, dated 2016).
Like-named read-outs stand apart in the source and are kept apart here.

Key:
hT2R5 = hT2R5 (Homo sapiens (Human), UniProt Q9NYW4); experiment: hT2R panel inhibition, transient HEK293 G16g44, agonist Picoline 10 mM; assay type: cell-based; conditions: HEK293, compound at 25 μM; receptor activated to EC80 with the corresponding agonist; read-out: screening result against bitter receptor 5
hT2R5, sequence (Q9NYW4 whole entry): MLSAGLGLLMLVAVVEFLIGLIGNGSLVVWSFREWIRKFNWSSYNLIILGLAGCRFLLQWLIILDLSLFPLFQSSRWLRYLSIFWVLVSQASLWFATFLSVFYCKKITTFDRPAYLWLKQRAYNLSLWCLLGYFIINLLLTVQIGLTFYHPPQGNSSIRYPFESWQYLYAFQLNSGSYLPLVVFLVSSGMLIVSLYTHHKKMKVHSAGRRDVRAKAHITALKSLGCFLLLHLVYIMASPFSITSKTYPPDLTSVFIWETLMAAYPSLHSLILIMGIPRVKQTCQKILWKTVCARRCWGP
How it was run: (§1)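 Each of 22 human bitter receptors was expressed individually by transient transfection in cells stably carrying the promiscuous G protein. Agonists were applied at EC80, and inhibition was scored as the drop in receptor activity with the test compound present.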

hT2R14 [1] = target: T1, hT2R14 (Homo sapiens (Human), UniProt Q9NYV8); experiment: hT2R panel inhibition, transient HEK293 G16g44, agonist Aristolochic Acid 2 μM; assay type: cell-based; conditions: HEK293, compound at 25 μM; receptor activated to EC80 with the corresponding agonist; read-out: screening result against bitter receptor 14
T1 sequence (Q9NYV8 whole entry): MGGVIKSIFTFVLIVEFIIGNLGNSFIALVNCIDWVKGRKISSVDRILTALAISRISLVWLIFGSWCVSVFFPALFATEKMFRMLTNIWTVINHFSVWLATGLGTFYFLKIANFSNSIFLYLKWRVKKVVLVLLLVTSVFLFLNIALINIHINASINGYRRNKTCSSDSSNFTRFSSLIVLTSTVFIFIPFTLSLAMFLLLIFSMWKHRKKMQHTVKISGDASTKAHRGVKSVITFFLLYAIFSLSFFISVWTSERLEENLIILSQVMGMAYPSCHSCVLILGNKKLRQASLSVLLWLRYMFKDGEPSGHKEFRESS
How it was run: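 Each hT2R was transiently transfected into HEK293 cells stably expressing G16g44 and assayed functionally for inhibition of agonist response. Agonists were applied at EC80: andrographolide at 0.5 mM for hT2R8 and aristolochic acid at 2 μM for hT2R14.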

hT2R3 = hT2R3 (Homo sapiens (Human), UniProt Q9NYW6); experiment: hT2R panel inhibition, transient HEK293 G16g44, agonist Chloroquine pH6.5 50 μM; assay type: cell-based; conditions: HEK293, compound at 25 μM; receptor activated to EC80 with the corresponding agonist; read-out: screening result against bitter receptor 3
hT2R3, sequence (Q9NYW6 whole entry): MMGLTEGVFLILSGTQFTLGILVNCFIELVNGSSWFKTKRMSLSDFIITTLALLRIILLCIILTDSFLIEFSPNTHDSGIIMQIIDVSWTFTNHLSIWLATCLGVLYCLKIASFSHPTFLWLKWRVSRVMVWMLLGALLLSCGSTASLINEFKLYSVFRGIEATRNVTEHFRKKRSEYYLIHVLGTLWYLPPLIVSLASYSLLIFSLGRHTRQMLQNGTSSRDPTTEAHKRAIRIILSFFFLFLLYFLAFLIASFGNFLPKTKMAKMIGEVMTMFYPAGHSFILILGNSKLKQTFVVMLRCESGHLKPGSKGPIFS
How it was run: as §1

hT2R71 = hT2R71 (Homo sapiens (Human), UniProt P59536); experiment: hT2R panel inhibition, transient HEK293 G16g44, agonist Picric Acid 10 μM; assay type: cell-based; conditions: HEK293, compound at 25 μM; receptor activated to EC80 with the corresponding agonist; read-out: screening result against bitter receptor 71
hT2R71, sequence (P59536 whole entry): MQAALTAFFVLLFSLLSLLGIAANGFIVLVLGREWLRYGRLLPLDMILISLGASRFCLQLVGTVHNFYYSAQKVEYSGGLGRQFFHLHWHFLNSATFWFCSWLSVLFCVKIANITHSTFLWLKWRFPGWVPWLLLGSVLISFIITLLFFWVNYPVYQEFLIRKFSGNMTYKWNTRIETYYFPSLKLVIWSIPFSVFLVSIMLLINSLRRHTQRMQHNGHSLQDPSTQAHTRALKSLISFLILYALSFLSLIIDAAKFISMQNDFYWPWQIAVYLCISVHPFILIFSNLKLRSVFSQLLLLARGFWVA
How it was run: as §1

hT2R44 = experiment: hT2R panel inhibition, transient HEK293 G16g44, agonist Denatonium 0.5 μM; assay type: cell-based, human; conditions: compound at 25 μM; receptor activated to EC80 with the corresponding agonist
How it was run: as §1

hT2R7 = hT2R7 (Homo sapiens (Human), UniProt Q9NYW3); experiment: hT2R panel inhibition, transient HEK293 G16g44, agonist Chloroquine pH6.5 10 mM; assay type: cell-based; conditions: HEK293, compound at 25 μM; receptor activated to EC80 with the corresponding agonist; read-out: screening result against bitter receptor 7
hT2R7, sequence (Q9NYW3 whole entry): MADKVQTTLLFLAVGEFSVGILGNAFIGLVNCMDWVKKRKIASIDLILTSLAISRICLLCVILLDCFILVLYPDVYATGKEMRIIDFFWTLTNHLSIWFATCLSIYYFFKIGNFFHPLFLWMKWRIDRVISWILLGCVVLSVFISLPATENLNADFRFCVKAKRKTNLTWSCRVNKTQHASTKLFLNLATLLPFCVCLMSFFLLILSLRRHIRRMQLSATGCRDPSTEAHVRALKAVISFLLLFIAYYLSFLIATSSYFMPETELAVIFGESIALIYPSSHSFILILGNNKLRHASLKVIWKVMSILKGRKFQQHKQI
How it was run: as §1

hT2R64 = hT2R64 (Homo sapiens (Human), UniProt P59538); experiment: hT2R panel inhibition, transient HEK293 G16g44, agonist Aristolochic Acid 1 μM; assay type: cell-based; conditions: HEK293, compound at 25 μM; receptor activated to EC80 with the corresponding agonist; read-out: screening result against bitter receptor 64
hT2R64, sequence (P59538 whole entry): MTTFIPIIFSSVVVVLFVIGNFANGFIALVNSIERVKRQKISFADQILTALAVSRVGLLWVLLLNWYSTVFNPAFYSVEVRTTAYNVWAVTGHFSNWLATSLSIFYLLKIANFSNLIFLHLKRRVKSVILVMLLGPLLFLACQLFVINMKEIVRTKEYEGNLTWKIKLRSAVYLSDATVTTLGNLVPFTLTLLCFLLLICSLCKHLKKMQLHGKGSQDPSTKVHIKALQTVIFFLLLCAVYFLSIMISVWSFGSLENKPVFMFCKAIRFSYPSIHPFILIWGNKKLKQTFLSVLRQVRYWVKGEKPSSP
How it was run: as §1

hT2R54 = experiment: hT2R panel inhibition, transient HEK293 G16g44, agonist Ranitidine 5 mM; assay type: cell-based, human; conditions: compound at 25 μM; receptor activated to EC80 with the corresponding agonist
How it was run: as §1

hT2R65 = experiment: hT2R panel inhibition, transient HEK293 G16g44, agonist Oleuropein 1 mM; assay type: cell-based, human; conditions: compound at 25 μM; receptor activated to EC80 with the corresponding agonist
How it was run: as §1

hT2R51 = hT2R51 (Homo sapiens (Human), UniProt P59533); experiment: hT2R panel inhibition, transient HEK293 G16g44, agonist Prop 2.5 μM; assay type: cell-based; conditions: HEK293, compound at 25 μM; receptor activated to EC80 with the corresponding agonist; read-out: screening result against bitter receptor 51
hT2R51, sequence (P59533 whole entry): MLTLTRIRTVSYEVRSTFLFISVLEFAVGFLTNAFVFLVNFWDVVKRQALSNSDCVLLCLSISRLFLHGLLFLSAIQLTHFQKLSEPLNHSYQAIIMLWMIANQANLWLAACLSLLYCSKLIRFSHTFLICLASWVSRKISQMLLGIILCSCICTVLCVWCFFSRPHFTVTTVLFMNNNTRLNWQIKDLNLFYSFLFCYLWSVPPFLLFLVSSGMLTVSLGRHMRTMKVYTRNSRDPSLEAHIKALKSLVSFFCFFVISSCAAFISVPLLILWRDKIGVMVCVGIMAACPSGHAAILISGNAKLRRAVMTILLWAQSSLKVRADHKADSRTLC
How it was run: as §1

hT2R67 = experiment: hT2R panel inhibition, transient HEK293 G16g44, agonist Andrographolide 5 μM; assay type: cell-based, human; conditions: compound at 25 μM; receptor activated to EC80 with the corresponding agonist
How it was run: as §1

hT2R75 = hT2R75 (Homo sapiens (Human), UniProt P59540); experiment: hT2R panel inhibition, transient HEK293 G16g44, agonist Strychnine 1 μM; assay type: cell-based; conditions: HEK293, read-out: screening result against bitter receptor 75, compound at 25 μM; receptor activated to EC80 with the corresponding agonist
hT2R75, sequence (P59540 whole entry): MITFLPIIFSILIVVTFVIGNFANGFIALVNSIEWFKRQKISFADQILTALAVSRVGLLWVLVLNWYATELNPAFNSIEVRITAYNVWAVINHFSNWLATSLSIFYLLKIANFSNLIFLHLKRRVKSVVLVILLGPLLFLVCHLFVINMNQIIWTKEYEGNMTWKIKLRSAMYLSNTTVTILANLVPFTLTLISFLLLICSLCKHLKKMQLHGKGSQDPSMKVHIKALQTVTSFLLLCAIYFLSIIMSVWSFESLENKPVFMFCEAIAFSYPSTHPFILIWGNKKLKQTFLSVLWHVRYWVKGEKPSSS

hT2R4 = hT2R4 (Homo sapiens (Human), UniProt Q9NYW5); experiment: hT2R panel inhibition, transient HEK293 G16g44, agonist Chloroquine pH6.5 5 mM; assay type: cell-based; conditions: HEK293, compound at 25 μM; receptor activated to EC80 with the corresponding agonist; class symbols; read-out: screening result against bitter receptor 4
hT2R4, sequence (Q9NYW5 whole entry): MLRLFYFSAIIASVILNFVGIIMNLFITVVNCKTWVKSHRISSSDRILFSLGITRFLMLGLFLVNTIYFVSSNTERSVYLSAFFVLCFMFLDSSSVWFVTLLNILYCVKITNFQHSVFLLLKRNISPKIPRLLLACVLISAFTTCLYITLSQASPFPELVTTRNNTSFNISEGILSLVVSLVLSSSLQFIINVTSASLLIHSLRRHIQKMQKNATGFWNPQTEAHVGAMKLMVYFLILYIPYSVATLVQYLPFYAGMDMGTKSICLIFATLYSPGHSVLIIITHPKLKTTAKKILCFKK
How it was run: as §1

hT2R61 = hT2R61 (Homo sapiens (Human), UniProt P59537); experiment: hT2R panel inhibition, transient HEK293 G16g44, agonist Aristolochic Acid 25 nM; assay type: cell-based; conditions: HEK293, compound at 25 μM; receptor activated to EC80 with the corresponding agonist; read-out: screening result against bitter receptor 61
hT2R61, sequence (P59537 whole entry): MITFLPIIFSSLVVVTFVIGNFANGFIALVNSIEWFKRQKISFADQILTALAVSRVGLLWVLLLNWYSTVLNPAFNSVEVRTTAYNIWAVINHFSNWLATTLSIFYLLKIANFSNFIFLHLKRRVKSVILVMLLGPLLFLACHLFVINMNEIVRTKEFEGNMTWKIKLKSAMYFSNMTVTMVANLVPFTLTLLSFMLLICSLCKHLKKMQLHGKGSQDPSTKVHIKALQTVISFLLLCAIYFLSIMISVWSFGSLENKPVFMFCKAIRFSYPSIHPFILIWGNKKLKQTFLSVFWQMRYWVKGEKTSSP
How it was run: as §1

hT2R16 = hT2R16 (Homo sapiens (Human), UniProt Q9NYV7); experiment: hT2R panel inhibition, transient HEK293 G16g44, agonist Salicin 1 mM; assay type: cell-based; conditions: HEK293, compound at 25 μM; receptor activated to EC80 with the corresponding agonist; read-out: screening result against bitter receptor 16
hT2R16, sequence (Q9NYV7 whole entry): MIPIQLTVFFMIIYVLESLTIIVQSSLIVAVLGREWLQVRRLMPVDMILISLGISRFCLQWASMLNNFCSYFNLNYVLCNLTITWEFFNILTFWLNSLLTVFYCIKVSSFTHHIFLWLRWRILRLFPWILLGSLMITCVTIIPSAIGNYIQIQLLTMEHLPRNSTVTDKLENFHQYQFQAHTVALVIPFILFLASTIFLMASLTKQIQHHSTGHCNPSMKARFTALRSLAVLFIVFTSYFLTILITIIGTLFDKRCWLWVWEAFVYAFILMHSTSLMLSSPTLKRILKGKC
How it was run: as §1

hT2R14 [2] = target: T1, hT2R14; experiment: hT2R14 antagonist high-throughput FLIPR assay, stable cell line with G16g44, agonist aristolochic acid; assay type: cell-based; conditions: read-out: IC50 on hT2R14 bitter receptor
How it was run: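 HEK293 cells stably expressing hT2R14 with chimeric G16g44 were stimulated with aristolochic acid (3 μM), giving 70-80% of maximal receptor activity. Test compounds were added together with the agonist, and antagonism was read as fluorescent calcium signal on FLIPR.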

hT2R10 = hT2R10 (Homo sapiens (Human), UniProt Q9NYW0); experiment: hT2R panel inhibition, transient HEK293 G16g44, agonist Strychnine 50 μM; assay type: cell-based; conditions: HEK293, read-out: screening result against bitter receptor 10, compound at 25 μM; receptor activated to EC80 with the corresponding agonist
hT2R10, sequence (Q9NYW0 whole entry): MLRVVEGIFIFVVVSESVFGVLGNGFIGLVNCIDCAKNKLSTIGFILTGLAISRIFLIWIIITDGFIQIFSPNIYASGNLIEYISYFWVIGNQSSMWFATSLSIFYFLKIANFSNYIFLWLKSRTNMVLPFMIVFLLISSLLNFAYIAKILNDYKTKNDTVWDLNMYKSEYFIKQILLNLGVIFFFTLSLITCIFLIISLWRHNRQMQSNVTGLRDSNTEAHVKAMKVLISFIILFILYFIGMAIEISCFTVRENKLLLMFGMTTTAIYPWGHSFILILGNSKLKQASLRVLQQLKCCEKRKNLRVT

hT2R63 = experiment: hT2R panel inhibition, transient HEK293 G16g44, agonist Caffeine 1 mM or Andrographolide 100 μM; assay type: cell-based, human; conditions: compound at 25 μM; receptor activated to EC80 with the corresponding agonist
How it was run: as §1

hT2R55 = experiment: hT2R panel inhibition, transient HEK293 G16g44, agonist Cinchonine 150 μM; assay type: cell-based, human; conditions: compound at 25 μM; receptor activated to EC80 with the corresponding agonist
How it was run: as §1

hT2R8 = hT2R8 (Homo sapiens (Human), UniProt Q9NYW2); experiment: hT2R8 antagonist high-throughput FLIPR assay, stable cell line with G16g44, agonist andrographolide; assay type: cell-based
hT2R8, sequence (Q9NYW2 whole entry): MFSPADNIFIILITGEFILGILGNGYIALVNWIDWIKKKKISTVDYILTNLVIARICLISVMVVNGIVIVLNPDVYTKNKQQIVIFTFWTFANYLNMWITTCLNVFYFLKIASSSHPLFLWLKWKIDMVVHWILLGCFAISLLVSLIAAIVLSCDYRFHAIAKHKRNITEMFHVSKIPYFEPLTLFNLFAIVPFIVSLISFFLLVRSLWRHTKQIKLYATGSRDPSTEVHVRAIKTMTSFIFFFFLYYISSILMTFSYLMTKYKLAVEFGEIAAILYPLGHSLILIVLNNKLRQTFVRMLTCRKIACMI
How it was run: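 HEK293 cells stably co-expressing hT2R8 and chimeric G16g44, read on FLIPR. Test compounds added together with andrographolide (200 μM), which drives the receptor to 70–80% of maximal activity; antagonism seen as reduced agonist response.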

[3] = test system: bitter taste of instant coffee; experiment: 2-alternative forced choice taste test, instant coffee with hT2R8 antagonists; assay type: in vivo, human; conditions: antagonist 5 μM
Procedure: Taste tests were performed with hT2R8 antagonists in instant coffee using a 2-alternative forced choice method with a taste panel of 15-20 panelists. Coffee samples with the antagonists were given to the taste panelists together with the same sample without antagonists, the panelists were asked to identify the bitterer sample within the pair.

[4] = read-out: IC50 on hT2R8 bitter receptor
[5] = table after Example 10-97, read-out: hT2R8 IC50

Compound | melting point | IC50 (hT2R8; [4]) | also measured
COc1ccc(CN(Cc2ccco2)S(=O)(=O)c2ccc(C(=O)O)cc2)cc1 [Example 5-2, 4-(N-(furan-2-ylmethyl)-N-(4-methoxybenzyl)sulfamoyl)benzoic acid] | 151 to 152 °C |  | inhibition at 25 µM (hT2R5): 20 to 40%; inhibition at 25 µM (hT2R14 [1]): > 80%; inhibition at 25 µM (hT2R3): 40 to 60%; inhibition at 25 µM (hT2R71): 60 to 80%; screening result against bitter receptor 44 (hT2R44): +++ (60% to 80% inhibition = +++); inhibition at 25 µM (hT2R7): 40 to 60%; inhibition at 25 µM (hT2R64): 60 to 80%; screening result against bitter receptor 54 (hT2R54): + (20% to 40% inhibition = +); screening result against bitter receptor 65 (hT2R65): + (20% to 40% inhibition = +); inhibition at 25 µM (hT2R51): 40 to 60%; screening result against bitter receptor 67 (hT2R67): + (20% to 40% inhibition = +); inhibition at 25 µM (hT2R75): 20 to 40%; inhibition at 25 µM (hT2R4): 20 to 40%; inhibition at 25 µM (hT2R61): > 80%; inhibition at 25 µM (hT2R16): 60 to 80%; IC50 (hT2R14 [2]): 590 nM; inhibition at 25 µM (hT2R10): 60 to 80%; screening result against bitter receptor 63 (hT2R63): ++++ (80% or greater inhibition = ++++); screening result against bitter receptor 55 (hT2R55): ++++ (80% or greater inhibition = ++++)
Cc1noc(C)c1Cn1cc(-n2c(=O)n(C)n(Cc3ccccc3)c2=O)cn1 [Example 10-65, 1-Benzyl-4-(1-((3,5-dimethylisoxazol-4-yl)methyl)-1H-pyrazol-4-yl)-2-methyl-1,2,4-triazolidine-3,5-dione] | 124 to 126 °C | 20 nM | IC50 (hT2R8; [5]): 19 nM
COc1cccc(CN2C(=O)N(c3cnn(Cc4c(C)noc4C)c3)C(=O)C2(C)C)c1 [Example 12-32, 3-(1-((3,5-dimethylisoxazol-4-yl)methyl)-1H-pyrazol-4-yl)-1-(3-methoxybenzyl)-5,5-dimethylimidazolidine-2,4-dione] | 107 to 108 °C | 80 nM | 
Cc1noc(C)c1Cn1cc(NC(=O)Cc2ccccc2)cn1 [Example 4-6, N-(1-((3,5-dimethylisoxazol-4-yl)methyl)-1H-pyrazol-4-yl)-2-phenylacetamide] | 106 to 108 °C | 530 nM | 
Cc1noc(C)c1Cn1cc(NC(=O)c2ccccn2)cn1 [Example 4-1, N-(1-((3,5-dimethylisoxazol-4-yl)methyl)-1H-pyrazol-4-yl)picolinamide] | 135 to 137 °C | 570 nM | 
Cc1noc(C)c1Cn1cc(NC(=O)C(C)c2ccccc2)cn1 (centres unmarked) [Example 4-5, N-(1-((3,5-dimethylisoxazol-4-yl)methyl)-1H-pyrazol-4-yl)-2-phenylpropanamide] | 129 to 130 °C | 320 nM | 
Cc1noc(C)c1Cn1cc(N2C(=O)N(Cc3cccc(CO)c3)C(C)(C)C2=O)cn1 [Example 12-34, 3-(1-((3,5-dimethylisoxazol-4-yl)methyl)-1H-pyrazol-4-yl)-1-(3-(hydroxymethyl)benzyl)-5,5-dimethylimidazolidine-2,4-dione] |  | 110 nM | Selected as bitterer: With antagonists [3]: 3; Selected as bitterer: Without antagonists [3]: 13
COc1ccccc1CCN1CC(=O)N(c2cnn(Cc3c(C)noc3C)c2)C1=O [Example 10-76, 3-(1-((3,5-dimethylisoxazol-4-yl)methyl)-1H-pyrazol-4-yl)-1-(2-methoxyphenethyl)imidazolidine-2,4-dione] | 97 to 98 °C | 140 nM | IC50 (hT2R8; [5]): 97 nM
COc1ccc(CN2C(=O)N(c3cnn(Cc4c(C)noc4C)c3)C(=O)C2(C)C)cc1O [Example 12-2, 3-(1-((3,5-dimethylisoxazol-4-yl)methyl)-1H-pyrazol-4-yl)-1-(3-hydroxy-4-methoxybenzyl)-5,5-dimethylimidazolidine-2,4-dione] |  | 60 nM | Selected as bitterer: With antagonists [3]: 2; Selected as bitterer: Without antagonists [3]: 14
Cc1noc(C)c1Cn1cc(N2C(=O)N(Cc3cccc(O)c3)C(C)(C)C2=O)cn1 [Example 12-1, 3-(1-((3,5-dimethylisoxazol-4-yl)methyl)-1H-pyrazol-4-yl)-1-(3-hydroxybenzyl)-5,5-dimethylimidazolidine-2,4-dione] |  | 50 nM | Selected as bitterer: With antagonists [3]: 2; Selected as bitterer: Without antagonists [3]: 14
Cc1noc(C)c1Cn1cc(N2C(=O)CN(CCOc3ccccc3)C2=O)cn1 [Example 10-5, 3-(1-((3,5-dimethylisoxazol-4-yl)methyl)-1H-pyrazol-4-yl)-1-(2-phenoxyethyl)imidazolidine-2,4-dione] | 117 to 118 °C | 60 nM | IC50 (hT2R8; [5]): 63 nM
Cc1noc(C)c1Cn1cc(NC(=O)[C@@H](C)c2ccccc2)cn1 [Example 4-3, (S)—N-(1-((3,5-dimethylisoxazol-4-yl)methyl)-1H-pyrazol-4-yl)-2-phenylpropanamide] | 108 to 110 °C | 410 nM | 
COc1cc(CC(=O)Nc2cnn(Cc3c(C)noc3C)c2)cc(OC)c1O [Example 4-4, N-(1-((3,5-dimethylisoxazol-4-yl)methyl)-1H-pyrazol-4-yl)-2-(4-hydroxy-3,5-dimethoxyphenyl)acetamide] | 187 to 188 °C | 460 nM | 
Cc1noc(C)c1Cn1cc(NC(=O)c2scc(S(C)(=O)=O)c2Cl)cn1 [Example 4-2, 3-chloro-N-(1-((3,5-dimethylisoxazol-4-yl)methyl)-1H-pyrazol-4-yl)-4-(methylsulfonyl)thiophene-2-carboxamide] | 202 to 204 °C | 2090 nM | 
Cc1noc(C)c1Cn1cc(NC(=O)C23CC4CC(CC(C4)C2)C3)cn1 [Example 4-16, N-(1-((3,5-dimethylisoxazol-4-yl)methyl)-1H-pyrazol-4-yl) adamantane] | 167 to 169 °C | 880 nM | 
COc1cccc(C(=O)Nc2cnn(Cc3c(C)noc3C)c2)c1 [Example 4-7, N-(1-((3,5-dimethylisoxazol-4-yl)methyl)-1H-pyrazol-4-yl)-3-methoxybenzamide] | 127 to 129 °C | 390 nM | 
